Measured values: article PMC12045974, “T cell toxicity induced by tigecycline binding to the mitochondrial ribosome” (Nature Communications, 2025)
Several values for one entry are separate records, joined by “and”; a condition that tells them apart may be missing. Identical values can stand only once.

Legend:
[1] = system: OXPHOS complexes; assay: Western blotting for OXPHOS complexes in Jurkat T cells and PBMCs; format: cell-based; conditions: Jurkat T cells and human PBMCs, 5 μM, 6 days
Method: Human PBMCs and Jurkat T cells were seeded in 6-well plates at a density of 1 million cells/ml and incubated with or without antibiotics in RPMI-1640 medium (with 10% FBS, 2.05 mM L-glutamine (Sigma), and 55 μM 2-ME (Gibco)) for 6 days. After centrifugation, cells were lysed in RIPA buffer containing protease and phosphatase inhibitors (cOmplete and PhosSTOP, respectively, Roche). Protein concentrations were determined by BCA (Pierce, Thermo Fisher). Protein samples were resuspended with 1× NuPAGE LDS sample buffer (Thermo Fisher) supplemented with 100 mM dithiothreitol, heated for 10 min at 75 °C, and separated on NuPAGE 4–12% Bis-Tris mini gels (Thermo Fisher) using NuPAGE 1× MES (Thermo Fisher) running buffer, and transferred to PVDF membranes (0.45 μm, Immobilon-P, Sigma) using the iBlot2 system (Invitrogen). Non-specific binding was blocked with TBST containing 5% non-fat milk, followed by overnight incubation at 4 °C with antibodies against Total OXPHOS Human WB Antibody Cocktail (Abcam, Cambridge, UK), followed by HRP-conjugated secondary antibodies for 1 h at room temperature. β-actin, HSP60, and GAPDH (Cell Signaling Technology) were used as loading control. Proteins were detected using Clarity Western ECL Substrate (Bio-Rad, 170-5061). For an example of presentation of full scan blots, see the Source Data file.

[2] = system: CD4+ and CD8+ T cells within PBMCs; assay: T cell proliferation by flow cytometry (CTV/CFSE dilution) in stimulated PBMCs; format: cell-based, human
Method: After thawing frozen PBMCs, cells were washed with RPMI complemented with 10% FBS, 2.05 mM L-glutamine (Sigma), and 55 μM 2-ME (Gibco) and rested at 37 °C (5% CO2) for 30 min. 250,000 cells per well were seeded in 96-well U-bottom plates with/without Human T-Activator CD3/CD28 beads (Invitrogen) at a 1:1 ratio and 10 ng/ml IL-2 (Proteintech) in RPMI-1640 medium mentioned above. At the same time, antibiotics were added. For the short-term activation assay, cells were harvested 18 h post-stimulation and stained with Aqua fixable live/dead dye (Invitrogen) and surface markers. For the proliferation assays, cells were stained with CFSE (eBioscience) or Cell Trace Violet (ThermoFisher Scientific) dyes before seeding and stimulation, according to the manufacturer’s recommendations. For TCR priming experiments, tigecycline was added at 0, 24 or 72 h post-activation. For mitochondrial mass measuring, cells were stained with Mitotracker Green Fm Dye (Thermo Fisher Scientific) after incubation with Tigecycline. After incubation for 6 days with a half medium (complete, with antibiotics and IL-2) change after 3 days, cells were harvested via centrifugation, and stained with live/dead dye and surface markers for analysis by flow cytometry. The Foxp3/Transcription Factor Staining Buffer Set (Invitrogen) was used to fix cells according to the manufacturer’s instructions. The FACS gating strategy is shown in Supplementary Fig. 2D. Flow cytometry was carried out on a BD Celesta (BD Biosciences) and analyzed in FlowJo (TreeStar) software.

CN(C)c1cc(NC(=O)CNC(C)(C)C)c(O)c2c1C[C@H]1C[C@H]3[C@H](N(C)C)C(O)=C(C(N)=O)C(=O)[C@@]3(O)C(O)=C1C2=O [Tigecycline, tigecycline]
levels of subunits of complex I (NDUFB8), complex III (UQCRCII) and complex IV (COX2) [1]: drop
levels of subunits of complex II (SDHB) and complex V (ATP5A) [1]: less affected
T cell culture proliferation ([2]; 10 μM administered 24 or 72 h after TCR stimulation): significantly reduce
T cell proliferation ([2]; CD4+ and CD8+ T cells within PBMCs, 6 days of anti-CD3/CD28 stimulation + IL-2): dose-dependent reductions in proliferation
% Cells in division 4 or later ([2]; CD4, 0H): 0.15% and 0.18% and 0.39%
% Cells in each division ([2]; CD4, 0H, division number 1): 23.9% and 13% and 15.5%
% Cells in each division ([2]; CD4, 0H, division number 2): 20.2% and 38.4% and 32.9%
% Cells in each division ([2]; CD4, 0H, division number 4): 0.42% and 2.83% and 5.88%
% Cells in each division ([2]; CD4, 0H, division number 5): 0% and 0.019% and 0.22%
% Cells in each division ([2]; CD4, 0H, division number 6): 0%
% Cells in each division ([2]; CD4, 0H, division number 7): 0%
% Cells in division 4 or later ([2]; CD4, 10μM, 6 days, CTV dilution in live cells): 6.485% and 4.27% and 0.862% and 2.104% and 3.325%
% Cells in division 4 or later ([2]; CD4, 24H): 0.21% and 0.19% and 0.9%
% Cells in each division ([2]; CD4, 24H, division number 2): 18.2% and 32.4% and 28.8%
% Cells in each division ([2]; CD4, 24H, division number 5): 0.044% and 0.15% and 0.38%
% Cells in each division ([2]; CD4, 24H, division number 6): 0% and 0.01%
% Cells in each division ([2]; CD4, 24H, division number 7): 0%
% Cells in each division ([2]; CD4, 72H, division number 3): 22.6% and 24.4% and 18.1%
% Cells in each division ([2]; CD4, 72H, division number 6): 1.08% and 0.32% and 1.2%
% Cells in each division ([2]; CD4, 72H, division number 7): 0%
% Cells in division 4 or later ([2]; CD8, 0H): 0.42% and 2.88% and 6.11%
% Cells in each division ([2]; CD8, 0H, division number 1): 38.7% and 31.7%
% Cells in each division ([2]; CD8, 0H, division number 2): 25.1% and 40.8% and 45.6%
% Cells in each division ([2]; CD8, 0H, division number 3): 4.86% and 6.4% and 12.3%
% Cells in each division ([2]; CD8, 0H, division number 4): 0.15% and 0.18% and 0.36%
% Cells in each division ([2]; CD8, 0H, division number 5): 0% and 0.019%
% Cells in each division ([2]; CD8, 0H, division number 6): 0%
% Cells in each division ([2]; CD8, 0H, division number 7): 0%
% Cells in division 4 or later ([2]; CD8, 2.5μM, 6 days, CTV dilution in live cells): 47.18% and 43.35% and 55.18% and 63.83% and 48.432%
% Cells in division 4 or later ([2]; CD8, 10μM, 6 days, CTV dilution in live cells): 6.12% and 2.26% and 7.121% and 11.81% and 6.155%
% Cells in each division ([2]; CD8, 24H, division number 1): 36.2% and 37.7% and 34%
% Cells in each division ([2]; CD8, 24H, division number 2): 22.1% and 39.5% and 41.6%
% Cells in each division ([2]; CD8, 24H, division number 3): 4.04% and 8.22% and 12.9%
% Cells in each division ([2]; CD8, 24H, division number 4): 0.19% and 0.87%
% Cells in each division ([2]; CD8, 24H, division number 5): 0.018% and 0% and 0.019%
% Cells in each division ([2]; CD8, 24H, division number 6): 0%
% Cells in each division ([2]; CD8, 24H, division number 7): 0%
% Cells in each division ([2]; CD8, 72H, division number 0): 1.06% and 7.49% and 1.18%
% Cells in each division ([2]; CD8, 72H, division number 2): 24.9% and 34.1% and 20.9%
% Cells in each division ([2]; CD8, 72H, division number 3): 45.1% and 28.9% and 40.2%
% Cells in each division ([2]; CD8, 72H, division number 5): 2.16% and 0.67% and 3.66%
% Cells in each division ([2]; CD8, 72H, division number 6): 0.03% and 0.025% and 0.033%
% Cells in each division ([2]; CD8, 72H, division number 7): 0%
